One series concerns BT20 breast cancer cells. Kind of series: Confocal laser scanning microscopy of microtubules / mitotic spindle, BT20. It is filed as cell-based, human. Here is the method: Immunofluorenscence was used to examine the spindle features of human cancer cell lines treated with Compound 003 or 0.5% DMSO. […] The coverslips were incubated with antibodies raised against α-tubulin, γ-tubulin (Sigma Chemical Co., St Louis, Mo.) (40 min 37° C.), washed in PBS-Tx-100, and incubated with an appropriate secondary antibody conjugated to FITC (Jackson ImmunoResearch, Westgrove, Pa.). Cellular DNA was labeled with 5 μM TOTO3 (Molecular Probes, Eugene, Oreg.) for 20 minutes. Coverslips were immediately inverted onto slides in Vectashield (Vector Labs, Burlingame, Calif.) to prevent photobleaching, sealed with nail varnish and stored at −20° C. The slides were examined using a Bio-Rad MRC-1024 Laser Scanning Confocal Microscope equipped with a Kr/Ar laser (BioRad, Hercules, Calif.) mounted on a Nikon Eclipse E800 upright microscope with high numerical aperture objectives (Nikon, Melville, N.Y.). Digital data were processed using Lasersharp (BioRad) and Adobe Photoshop software (Adobe Systems, Mountain View, Calif.). ( See, for example, Navara, et al., 2001, Anticancer Drugs. 12:369; Malaviya, et al., 2002, Leuk Lymphoma. 43, 1329; and Ghosh, 1998, Clin Cancer Res. 4, 2657).

Series [1] concerns human infant leukemia (RS4; 11). Kind of series: DNA flow cytometry of cell cycle arrest, RS4;11. It is filed as cell-based. The note with it: 100 μM, 48 hour. The procedure:
Exponentially growing tumor cells were cultured at 1×10^6 cells/ml in clonogenic medium (RPMI 1640 medium +1% penicillin/streptomycin +10% heat-inactivated fetal bovine serum, 2 mML-glutamine, and 10 mM Hepes buffer) in the presence or absence of 100 μM compound 003 for 48 hour at 37° C., 5% CO2. At 48 h, cells were washed two times in fresh clonogenic medium, trypsinized, fixed in ice cold ethanol and labeled with propidium iodide to quantify their DNA content, as described previously (See, for example, Navara, et al., 2001, Anticancer Drugs. 12:369). Quantitative DNA analysis was performed on a Becton Dickenson Calibur flow cytometer equipped with a Consort 40 computer using the COTFIT program, which includes CELLCY, a cell cycle distribution function that fits DNA content histograms and calculates-the percentages of cells in G, S, and GM phases of the cell cycle, as described, for example, in Uckun et al., 1996, J Biol Chem. 271, 6389.
For orientation: In flow cytometry, cells or beads pass a laser one at a time.

Series [2] relates to MMTV/Neu transgenic mice kept pregnant or lactating. Kind of series: Lactation induced murine model of Her 2 positive breast cancer, MMTV/Neu transgenic mice. The format is in vivo. The procedure:
MMTV/Neu transgenic mice were treated with Compound 003 that was added to the daily food of the mice at an average daily dose level of 50 mg/kg/day for the duration of the experiment. Mice were screened for the tumor formation every other day. Tumor-free survival was analyzed using life table statistics as previously reported. The protective anti-cancer activity of Compound 003 was evaluated according to the rise of the survival rate and prolongation of the tumor-free survival of the experimental animals as compared with the control animals. Statistical Significance was determined using the Kaplan Meier Log-Rank test.
In the second experiment, in order to maintain the development of mammary gland and maximum expression of the MMTV-driven neu transgene, all female transgenic mice were kept either pregnant or lactating by continued housing with male FVB mice. Treatments commenced when female mice were 6-weeks of age. Vehicle-treated control mice (N=16) developed breast cancer faster than vehicle treated virgin transgenic mice with a median cancer-free survival time of 169.5 days (Mean=160.8±9.3 days). Compound 003 prolonged the median cancer-free survival from 169.5 days to 234 days (P=0.05). At 200 days, the cumulative proportion of vehicle-treated neu transgenic mice was only 38±12%, whereas at the same time 75±11% of Compound 003-treated neu transgenic mice were cancer-free (FIG. 9).

Series [3] concerns Microsomal or cytosolic fractions of BT20 cells. Kind of series: Enzyme kinetics of Compound 003 metabolism in subcellular fractions, BT20. The format is in vitro ADME, human. The procedure: 1−3×10^8 Nalm6 and BT20 cells were washed with PBS, resuspended in homogenizing buffer containing 10 mM Tris-HCl (pH 7.4) and 250 mM sucrose. Cells were sonicated and spun at 10,000×g, and the resulting supernatant was centrifuged again at 100,000×g to isolate microsomal and cytosolic fractions. The microsomal pellet was resuspended in a buffer containing 10 mM Tris-HCl (pH 7.4), 250 mM sucrose, 1 mM EDTA, and 20% glycerol. Microsomes or cytosols of Nalm6 (80 μg. and 86 μg, respectively) and BT20 cells (59 μg and 160 μg, respectively) were preincubated with or without 1 mM paraoxon in Tris-HCl buffer (pH 7.4) in a total volume of 250 μl for 10 minutes; 1. mM COMPOUND 003 was then added to the incubation mixture, and the reactions were allowed to proceed for another 30 minutes and terminated by addition of 125 μl of acetone. Protein precipitation was then removed by centrifugation; 100 μl of the supernatant was injected directly into the HPLC.
2.2.9 Enzyme Kinetics of Compound 003 Metabolism Microsomal or cytosolic fractions of Nalm6 and BT20 cells were incubated with COMPOUND 003 at various concentrations from 10 μM to 1.2 mM in similar reaction conditions as described above, except without the inhibitor. The reactions were allowed to proceed for 40 minutes. Km and Vmax in the Michaelis-Menten model were estimated by WinNonlin program (Scientific Consulting, Inc.)

Series [4] can be described thus: Stability in simulated gastric fluid. The format is in vitro ADME. Here is the method: Plasma samples, simulated gastric fluid and intestinal fluids (United State Pharmacopeia XXII methods) were separately spiked with COMPOUND 003 to yield final concentrations of 500 μM. Spiked samples were incubated at 37° C. At a predetermined time (5, 10, 15, 30 60 and 120 minutes), an aliquot (200 μl) of the spiked plasma sample was extracted as described above.

By Km is commonly meant the concentration of substrate that gives half-maximal velocity. What is called Vmax is the top rate of the reaction or transport when substrate is in excess. Turning to `COC(=O)C(C)NP(=O)(OCC1OC(n2cc(C)c(=O)[nH]c2=O)CC1N=[N+]=[N-])Oc1ccc(OC)cc1` (centres unmarked) [Compound 003, 3′-azidothymidine 5′-[p-methoxyphenylmethoxyalaninyl phosphate]], the mitotic spindle formation entry with BT20 breast cancer cells (100 μM) was “induced aberrant multipolar spindle formation”. In addition, in the series with BT20 breast cancer cells (185 μM for 24 hours (AZT: similar concentrations)), the effect on microtubules entry is on record as “no microtubules were observed”. Further, the cell cycle arrest result in series [1] is “G2M cell cycle arrest”. The compound further registered a median cancer-free survival in series [2] (50 mg/kg/day in food, vehicle 169.5 days, P=0.05) of 234 days. In addition, the “proportion of mice cancer-free” value in series [2] (50 mg/kg/day, at 200 days, vehicle 38±12%) turned out to be 75±11%. Also, in series [3] (cytosolic fraction), the Km came to 1.75 mM and the Vmax was found to be 5.9 nmol/mg/min. Further, in series [3] (microsomal fraction), the Km is 0.46 mM and the maximum rate (Vmax) worked out at 0.7 nmol/mg/min. Further, in series [4] (gastric fluid), the decomposition product result is “quickly decomposed to yield a intermediate product”. For the same compound, the stability result in series [4] (simulated gastric fluid, 500 μM, 37° C.) is given as “unstable”.

The values are drawn from patent US20060046972A1, “Cytotoxic nucleoside analog compound 003 for treating cancer” (Parker Hughes Institute, priority 2004, published 2006).
